Measurements from patent US12077503B2, “Substituted cyclic amides and their use as herbicides” (FMC CORPORATION, priority 2015, dated 2024).

Columns and labels:
Type in all cases: in vivo
[1] = tested on: ivy-leaved morning glory (Ipomoea hederacea); experiment: Test G Pre-Emergence Protocol; settings: Ipomoea, pre-emergence, 312 h, evaluated after 13 days; for pest or weed control at 15.625 g/ha: 15.625 g ai/ha; for pest or weed control at 15.625 g/ha / pest or weed control at 250 g/ha: read-out: Morningglory, Ivy-leaved damage rating (100=total damage to plant; 0=no damage to plant); for pest or weed control at 62.5 g/ha: 62.5 g ai/ha, 100=total damage to plant, 0=no damage to plant, read-out: Morningglory, Ivy-leaved damage rating; for pest or weed control at 250 g/ha: 250 g ai/ha
How it was run: (§1)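 Visual injury (0–100) at day 13 after a single pre-emergence spray. Rates: 15.625, 62.5, 250 g/ha in acetone–water 50:50 with 0.5% Tween 20. Growth conditions: 24/16° C, 14 h light, 65% humidity.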

[2] = tested on: barnyardgrass (Echinochloa crus-galli); experiment: Test G Pre-Emergence Protocol; settings: Echinochloa crus-galli, pre-emergence, 312 h, evaluated after 13 days; for pest or weed control at 15.625 g/ha: 15.625 g ai/ha; for pest or weed control at 15.625 g/ha / pest or weed control at 250 g/ha: read-out: Barnyardgrass damage rating (100=total damage to plant; 0=no damage to plant); for pest or weed control at 62.5 g/ha: 62.5 g ai/ha, 100=total damage to plant, 0=no damage to plant, read-out: Barnyardgrass damage rating; for pest or weed control at 250 g/ha: 250 g ai/ha
How it was run: as §1

[3] = tested on: giant foxtail (Setaria faberi); experiment: Test G Pre-Emergence Protocol; settings: Setaria faberi, pre-emergence, 312 h, evaluated after 13 days; for pest or weed control at 15.625 g/ha: 15.625 g ai/ha; for pest or weed control at 15.625 g/ha / pest or weed control at 250 g/ha: read-out: Foxtail, Giant damage rating (100=total damage to plant; 0=no damage to plant); for pest or weed control at 62.5 g/ha: 62.5 g ai/ha, 100=total damage to plant, 0=no damage to plant, read-out: Foxtail, Giant damage rating; for pest or weed control at 250 g/ha: 250 g ai/ha
How it was run: as §1

corn (Zea mays) [4] = experiment: Test G Pre-Emergence Protocol; settings: Zea mays, pre-emergence, 312 h, evaluated after 13 days; for plant injury at 15.625 g/ha: 15.625 g ai/ha; for plant injury at 15.625 g/ha / plant injury at 250 g/ha: read-out: Corn damage rating (100=total damage to plant; 0=no damage to plant); for plant injury at 62.5 g/ha: 62.5 g ai/ha, 100=total damage to plant, 0=no damage to plant, read-out: Corn damage rating; for plant injury at 250 g/ha: 250 g ai/ha
How it was run: as §1

[5] = tested on: velvetleaf (Abutilon theophrasti); experiment: Test G Pre-Emergence Protocol; settings: Abutilon theophrasti, pre-emergence, 312 h, evaluated after 13 days; for pest or weed control at 15.625 g/ha: 15.625 g ai/ha; for pest or weed control at 15.625 g/ha / pest or weed control at 250 g/ha: read-out: Velvetleaf damage rating (100=total damage to plant; 0=no damage to plant); for pest or weed control at 62.5 g/ha: 62.5 g ai/ha, 100=total damage to plant, 0=no damage to plant, read-out: Velvetleaf damage rating; for pest or weed control at 250 g/ha: 250 g ai/ha
How it was run: as §1

[6] = tested on: redroot pigweed (Amaranthus retroflexus); experiment: Test G Pre-Emergence Protocol; settings: Amaranthus retroflexus, pre-emergence, 312 h, evaluated after 13 days; for pest or weed control at 15.625 g/ha: 15.625 g ai/ha; for pest or weed control at 15.625 g/ha / pest or weed control at 250 g/ha: read-out: Pigweed, Redroot damage rating (100=total damage to plant; 0=no damage to plant); for pest or weed control at 62.5 g/ha: 62.5 g ai/ha, 100=total damage to plant, 0=no damage to plant, read-out: Pigweed, Redroot damage rating; for pest or weed control at 250 g/ha: 250 g ai/ha
How it was run: as §1

[7] = tested on: ivy-leaved morning glory (Ipomoea hederacea); experiment: Test G Post-Emergence Protocol; settings: Ipomoea, post-emergence, 312 h, read-out: Morningglory, Ivy-leaved damage rating; for pest or weed control at 15.625 g/ha: 15.625 g ai/ha, evaluated after 13 days (100=total damage to plant; 0=no damage to plant); for pest or weed control at 62.5 g/ha: 62.5 g ai/ha; for pest or weed control at 62.5 g/ha / pest or weed control at 250 g/ha: evaluated after 13 days, 100=total damage to plant, 0=no damage to plant; for pest or weed control at 250 g/ha: 250 g ai/ha
How it was run: (§2)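 Pot-grown seedlings, 8 days old, raised in a glasshouse at 24/16 °C day/night with 14 h light and 65% humidity, were sprayed post-emergence with test compound in acetone/water (50:50) plus 0.5% Tween 20 at 15.625, 62.5 or 250 g/ha. Damage was scored visually 13 days later on a 0–100 scale (100 = total damage).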

[8] = tested on: barnyardgrass (Echinochloa crus-galli); experiment: Test G Post-Emergence Protocol; settings: Echinochloa crus-galli, post-emergence, 312 h, read-out: Barnyardgrass damage rating; for pest or weed control at 15.625 g/ha: 15.625 g ai/ha, evaluated after 13 days (100=total damage to plant; 0=no damage to plant); for pest or weed control at 62.5 g/ha: 62.5 g ai/ha; for pest or weed control at 62.5 g/ha / pest or weed control at 250 g/ha: evaluated after 13 days, 100=total damage to plant, 0=no damage to plant; for pest or weed control at 250 g/ha: 250 g ai/ha
How it was run: as §2

[9] = tested on: giant foxtail (Setaria faberi); experiment: Test G Post-Emergence Protocol; settings: Setaria faberi, post-emergence, 312 h, read-out: Foxtail, Giant damage rating; for pest or weed control at 15.625 g/ha: 15.625 g ai/ha, evaluated after 13 days (100=total damage to plant; 0=no damage to plant); for pest or weed control at 62.5 g/ha: 62.5 g ai/ha; for pest or weed control at 62.5 g/ha / pest or weed control at 250 g/ha: evaluated after 13 days, 100=total damage to plant, 0=no damage to plant; for pest or weed control at 250 g/ha: 250 g ai/ha
How it was run: as §2

corn (Zea mays) [10] = experiment: Test G Post-Emergence Protocol; settings: Zea mays, post-emergence, 312 h, read-out: Corn damage rating; for plant injury at 15.625 g/ha: 15.625 g ai/ha, evaluated after 13 days (100=total damage to plant; 0=no damage to plant); for plant injury at 62.5 g/ha: 62.5 g ai/ha; for plant injury at 62.5 g/ha / plant injury at 250 g/ha: evaluated after 13 days, 100=total damage to plant, 0=no damage to plant; for plant injury at 250 g/ha: 250 g ai/ha
How it was run: as §2

[11] = tested on: velvetleaf (Abutilon theophrasti); experiment: Test G Post-Emergence Protocol; settings: Abutilon theophrasti, post-emergence, 312 h, read-out: Velvetleaf damage rating; for pest or weed control at 15.625 g/ha: 15.625 g ai/ha, evaluated after 13 days (100=total damage to plant; 0=no damage to plant); for pest or weed control at 62.5 g/ha: 62.5 g ai/ha; for pest or weed control at 62.5 g/ha / pest or weed control at 250 g/ha: evaluated after 13 days, 100=total damage to plant, 0=no damage to plant; for pest or weed control at 250 g/ha: 250 g ai/ha
How it was run: as §2

[12] = tested on: redroot pigweed (Amaranthus retroflexus); experiment: Test G Post-Emergence Protocol; settings: Amaranthus retroflexus, post-emergence, 312 h, read-out: Pigweed, Redroot damage rating; for pest or weed control at 15.625 g/ha: 15.625 g ai/ha, evaluated after 13 days (100=total damage to plant; 0=no damage to plant); for pest or weed control at 62.5 g/ha: 62.5 g ai/ha; for pest or weed control at 62.5 g/ha / pest or weed control at 250 g/ha: evaluated after 13 days, 100=total damage to plant, 0=no damage to plant; for pest or weed control at 250 g/ha: 250 g ai/ha
How it was run: as §2

SMILES	pest or weed control at 15.625 g/ha [1] [%]	pest or weed control at 62.5 g/ha [1] [%]	pest or weed control at 250 g/ha [1] [%]	pest or weed control at 15.625 g/ha [2] [%]	pest or weed control at 62.5 g/ha [2] [%]	pest or weed control at 250 g/ha [2] [%]	pest or weed control at 15.625 g/ha [3] [%]	pest or weed control at 62.5 g/ha [3] [%]	pest or weed control at 250 g/ha [3] [%]	plant injury at 15.625 g/ha (corn (Zea mays) [4]) [%]	plant injury at 62.5 g/ha (corn (Zea mays) [4]) [%]	plant injury at 250 g/ha (corn (Zea mays) [4]) [%]	pest or weed control at 15.625 g/ha [5] [%]	pest or weed control at 62.5 g/ha [5] [%]	pest or weed control at 250 g/ha [5] [%]	pest or weed control at 15.625 g/ha [6] [%]	pest or weed control at 62.5 g/ha [6] [%]	pest or weed control at 250 g/ha [6] [%]	pest or weed control at 15.625 g/ha [7] [%]	pest or weed control at 62.5 g/ha [7] [%]	other results
Cc1cc(C2CN(C)C(=O)C2C(=O)Nc2cccc(F)c2F)cc(Cl)c1F (stereo not drawn) [Compound 1708]	0	0	20	20	30	60	60	80	90	0	0	0	0	0	0	0	0	0	20	20	pest or weed control at 250 g/ha [7]: 20%; pest or weed control at 15.625 g/ha [8]: 40%; pest or weed control at 62.5 g/ha [8]: 50%; pest or weed control at 250 g/ha [8]: 80%; pest or weed control at 15.625 g/ha [9]: 40%; pest or weed control at 62.5 g/ha [9]: 60%; pest or weed control at 250 g/ha [9]: 60%; plant injury at 15.625 g/ha (corn (Zea mays) [10]): 10%; plant injury at 62.5 g/ha (corn (Zea mays) [10]): 30%; plant injury at 250 g/ha (corn (Zea mays) [10]): 70%; pest or weed control at 15.625 g/ha [11]: 0%; pest or weed control at 62.5 g/ha [11]: 0%; pest or weed control at 250 g/ha [11]: 0%; pest or weed control at 15.625 g/ha [12]: 0%; pest or weed control at 62.5 g/ha [12]: 0%; pest or weed control at 250 g/ha [12]: 0%
CCOc1cc(C2CN(C)C(=O)C2C(=O)Nc2cccc(F)c2F)ccc1Cl (stereo not drawn) [Compound 1686]	0	20	60	40	70	70	60	70	90	10	20	50	0	0	40	0	0	60	20	20	pest or weed control at 250 g/ha [7]: 70%; pest or weed control at 15.625 g/ha [8]: 30%; pest or weed control at 62.5 g/ha [8]: 70%; pest or weed control at 250 g/ha [8]: 80%; pest or weed control at 15.625 g/ha [9]: 60%; pest or weed control at 62.5 g/ha [9]: 70%; pest or weed control at 250 g/ha [9]: 80%; plant injury at 15.625 g/ha (corn (Zea mays) [10]): 0%; plant injury at 62.5 g/ha (corn (Zea mays) [10]): 10%; plant injury at 250 g/ha (corn (Zea mays) [10]): 60%; pest or weed control at 15.625 g/ha [11]: 30%; pest or weed control at 62.5 g/ha [11]: 20%; pest or weed control at 250 g/ha [11]: 40%; pest or weed control at 15.625 g/ha [12]: 30%; pest or weed control at 62.5 g/ha [12]: 20%; pest or weed control at 250 g/ha [12]: 40%
CN1C[C@H](c2cccc(C(F)(F)F)c2)[C@@H](C(=O)Nc2cc(C#N)ccn2)C1=O (racemic) [Compound 1735]	0	0	0	0	0	0	0	0	0	0	0	0	0	0	0	0	0	0	0	0	pest or weed control at 250 g/ha [7]: 0%; pest or weed control at 15.625 g/ha [8]: 0%; pest or weed control at 62.5 g/ha [8]: 0%; pest or weed control at 250 g/ha [8]: 0%; pest or weed control at 15.625 g/ha [9]: 0%; pest or weed control at 62.5 g/ha [9]: 0%; pest or weed control at 250 g/ha [9]: 0%; plant injury at 15.625 g/ha (corn (Zea mays) [10]): 0%; plant injury at 62.5 g/ha (corn (Zea mays) [10]): 0%; plant injury at 250 g/ha (corn (Zea mays) [10]): 0%; pest or weed control at 15.625 g/ha [11]: 0%; pest or weed control at 62.5 g/ha [11]: 0%; pest or weed control at 250 g/ha [11]: 0%; pest or weed control at 15.625 g/ha [12]: 0%; pest or weed control at 62.5 g/ha [12]: 0%; pest or weed control at 250 g/ha [12]: 0%
